Earlier results as cited in patent US11369575B2, “PPARα agonist compositions and methods of use” (The Board of Regents of the University of Oklahoma, priority 2019, dated 2022).

Conditions: free fenofibrate after IVT dosing

CC(C)OC(=O)C(C)(C)Oc1ccc(C(=O)c2ccc(Cl)cc2)cc1 [fenofibrate]
time in which active drug levels disappear: less than 1 week
